# Tests used:
# Psoriasis = conditions: 1% rhamnolipid ointment; Belgium patent No. 1,005,704; cited from earlier work
# in vitro = conditions: human, mt4 cells
# carboxypeptidase A = test: enzyme inhibition, carboxypeptidase A; type: biochemical
# Protocol: (§1) Rhamnolipid (II) was tested in vitro against a wide array of enzymes.
# (§2) The following enzymes were inhibited at the various rhamnolipid concentrations indicated:
# (§3) All enzyme assays were done spectrophotometrically by computer linked automatic microplate reader (Labsystem Multiskan) and Diode Array spectrophotometer (Perkin Elmer).
# [1] = system: sheep red blood cell (SRBC) hemagglutination; test: immunosuppression (humoral): sheep red blood cell (SRBC) hemagglutination; type: in vivo, mouse (ICR, female)
# Protocol: Groups of 6 mice were sensitized by the IV injection of 0.2 ml of a 2% SRBC suspension. On the 9th day following sensitization, blood samples were withdrawn from the orbital sinus and equal parts of complement inactivated serum from the group of 6 mice were pooled to yield a single 0.25 ml sample. Serial 2-fold dilutions were then carried out 10 times in the presence of added complement. […] Serum titers of less than 16 or greater than 128 are considered significant and indicate possible immunosuppressant and immunostimulant activity, respectively.
# For immunostimulant activity, test substance or vehicle was administered i.p. to groups of mice for 3 consecutive days, and sensitized to SRBCs 2 hours after the third (last) injection. For immunosuppressant activity, test substance or vehicle was administered i.p. to groups of mice for 3 consecutive days beginning 2 hours after sensitization to SRBCs.
# elastase = test: enzyme inhibition, elastase; type: biochemical
# Protocol: as §1, §3
# P561ek Tyrosine Kinase = P561ek Tyrosine Kinase (Homo sapiens, UniProt P06239); test: enzyme inhibition, p56lck tyrosine kinase; type: biochemical; conditions: 0.5% DMSO
# P561ek Tyrosine Kinase, sequence (P06239 whole entry): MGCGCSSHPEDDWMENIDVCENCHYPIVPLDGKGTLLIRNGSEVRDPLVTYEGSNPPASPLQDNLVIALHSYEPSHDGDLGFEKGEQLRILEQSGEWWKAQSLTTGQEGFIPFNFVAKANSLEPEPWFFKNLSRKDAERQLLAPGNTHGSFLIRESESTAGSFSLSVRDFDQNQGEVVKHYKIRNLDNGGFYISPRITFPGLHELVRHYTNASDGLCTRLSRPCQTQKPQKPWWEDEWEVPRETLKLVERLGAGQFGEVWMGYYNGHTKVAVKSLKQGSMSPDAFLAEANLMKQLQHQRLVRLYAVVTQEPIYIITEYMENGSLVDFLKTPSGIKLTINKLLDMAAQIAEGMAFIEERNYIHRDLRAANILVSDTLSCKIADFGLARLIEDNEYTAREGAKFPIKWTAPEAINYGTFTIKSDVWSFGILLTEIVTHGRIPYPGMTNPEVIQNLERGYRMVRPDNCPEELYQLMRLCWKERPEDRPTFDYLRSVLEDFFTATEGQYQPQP
# Protocol: as §1, §3
# acetylcholinesterase = test: enzyme inhibition, acetylcholinesterase; type: biochemical
# Protocol: as §1, §2, §3
# [2] = system: oxazolone-induced delayed type hypersensitivity; test: immunostimulation (cellular): oxazolone-induced delayed type hypersensitivity; type: in vivo, mouse; conditions: for Swelling (R -L) / ear thickness, Left Ear (No Oxa.) / ear thickness, Right Ear (24 hrs Oxa.): X ± SEM
# Protocol: The test substance was administered i.p to groups of 5 mice, 1 hour before application (sensitization) of oxazolone (0.1 ml of 5% solution) to the pre-shaven abdominal surface. Seven days later, 25 μl of a 2% solution of oxazolone was applied (challenge) to the right ear, with vehicle being applied to the left ear. After 24 hours, each mouse was sacrificed and ear thickness measured with a Dyer Model micrometer gauge. Greater than 30 percent enhancement is considered immunostimulant activity.
# Lichen ruber planus [3] = test: clinical treatment of lichen ruber planus; type: in vivo, human; conditions: one patient
# Protocol: 17 patients, 11 men and 6 women, were treated with rhamnolipid (II). Among these, 12 patients were suffering from Psoriasis, 2 from Neurodermitis, 1 from Lichen ruber planus, 1 from Serborhoic dermatitis and one from Dermatitis circumscripta unilocularis eczematoides.
# trypsin = test: enzyme inhibition, trypsin; type: biochemical
# Protocol: as §1, §2, §3
# [4] = system: tissue plasminogen activator (t-PA) released by human umbilical cord venous endothelial cells; test: tissue plasminogen activator release; type: cell-based
# alpha-amylase = test: enzyme inhibition, alpha-amylase; type: biochemical
# Protocol: as §1, §2, §3
# mice C57B1/6 = conditions: mouse, in vivo
# Protocol: Tests were performed on mice C57B1/6, Animal source: Bantin and Kingman. This was done following the procedures described elsewhere in Technical Report Series, National Toxicology Program, U.S. Department of Health and Human services.
# Examinations were made in all tests on the following tissues from each mouse necropsied: bone (femur), bone marrow (femur)-slide only, brain, colon, duodenum, testes, heart, kidneys, liver, lungs (infuse with formalin), pancreas, spleen, muscle, adrenal nodes, uterus, gastric.
# [5] = system: T-cells isolated from mouse thymus; test: T-lymphocyte proliferation; type: cell-based
# Protocol: Procedure: T-cells were isolated from mouse thymus using conventional procedures, and suspended in DMEM. 5×10^6 cells/ml were incubated overnight at 37° C. to assess stimulation (positive score, related to 3 ug/ml Concanavalin A) or suppression (negative score, related to blank control) of cell proliferation. Test substance was evaluated under these conditions at 10, 1, 0.1, 0.01, 0,001 uM. After overnight incubation, 2 uCi [^3 H] thymidine was added to each well. Cells were harvested after an additional 48 hour incubation, and thymidine incorporation assessed by liquid scintillation counting.
# CHO cells [6] = system: CHO cells
# Lichen ruber planus [7] = conditions: 1% rhamnolipid ointment; Belgium patent No. 1,005,704; cited from earlier work
# lipoxygenase = test: enzyme inhibition, lipoxygenase; type: biochemical
# Protocol: as §1, §2, §3
# CHO cells [8] = type: cell-based
# Protocol: After 16h incubation of CHO cells with rhamnolipid, the number of micronuclei inside certain binuclear cells increased up to 4.
compound,measurement,setting,value
"CCCCCCCC(CC(=O)O)OC(=O)CC(CCCCCCC)O[C@@H]1O[C@@H](C)[C@H](O)[C@@H](O)[C@H]1O[C@@H]1O[C@@H](C)[C@H](O)[C@@H](O)[C@H]1O (stereo partly drawn) [Rhamnolipid (II), (alpha-L-rhamnopyranosyl-(1,2)alpha-L-rhamnopyranosyl)-3-hydroxydecanoyl-3-hydroxydecanoic acid]",activity in treatment of Psoriasis,Psoriasis,strong activity
same,MCC,in vitro,> 169 µg/mL
same,concentration at which the enzyme was inhibited,carboxypeptidase A,1 mg/mL
same,SERUM TITER (Reciprocal Serum Dilution),[1]; IP 0.1 × 3 mg/kg,32
same,SERUM TITER (Reciprocal Serum Dilution),[1]; IP 1 × 3 mg/kg,32
same,SERUM TITER (Reciprocal Serum Dilution),[1]; IP 10 × 3 mg/kg,128
same,SERUM TITER (Reciprocal Serum Dilution),[1]; IP 100 × 3 mg/kg,16
same,died on Day 3,[1]; IP 100 × 3 mg/kg,2/6
same,effect on enzyme,elastase,no effect
same,inhibition at 0.01 µM,P561ek Tyrosine Kinase; 0.01 μM,4%
same,inhibition at 1 µM,P561ek Tyrosine Kinase; 1 μM,3%
same,inhibition at 100 µM,P561ek Tyrosine Kinase; 100 μM,11%
same,concentration at which the enzyme was inhibited,acetylcholinesterase,1 mg/mL
same,Swelling Inc. %,[2]; IP 0.1 × 5 mg/kg,-11%
same,Swelling (R -L),[2]; IP 0.1 × 5 mg/kg,15.4 +/- 1.7 × 0.01 mm
same,"ear thickness, Left Ear (No Oxa.)",[2]; IP 0.1 × 5 mg/kg,19.4 +/- 1.1 × 0.01 mm
same,"ear thickness, Right Ear (24 hrs Oxa.)",[2]; IP 0.1 × 5 mg/kg,34.8 +/- 1.8 × 0.01 mm
same,Swelling Inc. %,[2]; IP 1 × 5 mg/kg,9%
same,Swelling (R -L),[2]; IP 1 × 5 mg/kg,19.0 +/- 2.2 × 0.01 mm
same,"ear thickness, Left Ear (No Oxa.)",[2]; IP 1 × 5 mg/kg,20.6 +/- 0.9 × 0.01 mm
same,"ear thickness, Right Ear (24 hrs Oxa.)",[2]; IP 1 × 5 mg/kg,39.6 +/- 2.2 × 0.01 mm
same,Swelling Inc. %,[2]; IP 10 × 5 mg/kg,14%
same,Swelling (R -L),[2]; IP 10 × 5 mg/kg,19.8 +/- 1.9 × 0.01 mm
same,"ear thickness, Left Ear (No Oxa.)",[2]; IP 10 × 5 mg/kg,20.2 +/- 0.4 × 0.01 mm
same,"ear thickness, Right Ear (24 hrs Oxa.)",[2]; IP 10 × 5 mg/kg,40.0 +/- 1.6 × 0.01 mm
same,Swelling Inc. %,[2]; IP 100 × 5 mg/kg,-37%
same,died on Day 2,[2]; IP 100 × 5 mg/kg,1/5
same,Swelling (R -L),[2]; IP 100 × 5 mg/kg,11.0 +/- 1.1 × 0.01 mm
same,"ear thickness, Left Ear (No Oxa.)",[2]; IP 100 × 5 mg/kg,21.3 +/- 1.0 × 0.01 mm
same,"ear thickness, Right Ear (24 hrs Oxa.)",[2]; IP 100 × 5 mg/kg,32.3 +/- 2.0 × 0.01 mm
same,cure,Lichen ruber planus [3],completely cured
same,concentration at which the enzyme was inhibited,trypsin,1 mg/mL
same,t-PA release induced by PMA,"[4]; 0.1 mg/ml, PMA induced",slightly inhibited
same,basal t-PA release,[4]; basal,no effect
same,concentration at which the enzyme was inhibited,alpha-amylase,1 mg/mL
same,pathohistological changes,mice C57B1/6,none of the regressive-progressive or inflammatory type of changes were detected
same,T-cell proliferation,"[5]; 10 uM, without Con A",inhibited
same,in vitro T cell immunosuppression activity,"[5]; 10 uM, without ConA",T cell immunosuppression activity
same,activation at 0.001 µM,"[5]; Mus musculus, T-cell, 0.001 uM, 0.5% DMSO, read-out: % Stimulation (+)/Suppression (-)",-2%
same,activation at 0.01 µM,"[5]; Mus musculus, T-cell, 0.01 uM, 0.5% DMSO, read-out: % Stimulation (+)/Suppression (-)",0%
same,activation at 0.1 µM,"[5]; Mus musculus, T-cell, 0.1 uM, 0.5% DMSO, read-out: % Stimulation (+)/Suppression (-)",1%
same,activation at 1 µM,"[5]; Mus musculus, T-cell, 1 uM, 0.5% DMSO, read-out: % Stimulation (+)/Suppression (-)",-3%
same,activation at 10 µM,"[5]; Mus musculus, T-cell, 10 uM, 0.5% DMSO, read-out: % Stimulation (+)/Suppression (-)",-24%
same,defect of spiralization,CHO cells [6],not observed
same,overall structural chromosome damages and number of cells with 2 to 4 aberrations,CHO cells [6],increased several fold
same,activity in treatment of Lichen rubber planus,Lichen ruber planus [7],strong activity
same,concentration at which the enzyme was inhibited,lipoxygenase,10 µg/mL
same,micronuclei numbers,CHO cells [8],increased compared to the parallel control specimens
same,number of micronuclei inside certain binuclear cells,CHO cells [8],up to 4

# Reference: patent US5466675A, “Immunological activity of rhamnolipids” (priority 1992, dated 1995)
